Test [1] has as its target T1, Adenosine receptor A1 (Homo sapiens) (UniProt P30542).
T1 sequence (whole entry): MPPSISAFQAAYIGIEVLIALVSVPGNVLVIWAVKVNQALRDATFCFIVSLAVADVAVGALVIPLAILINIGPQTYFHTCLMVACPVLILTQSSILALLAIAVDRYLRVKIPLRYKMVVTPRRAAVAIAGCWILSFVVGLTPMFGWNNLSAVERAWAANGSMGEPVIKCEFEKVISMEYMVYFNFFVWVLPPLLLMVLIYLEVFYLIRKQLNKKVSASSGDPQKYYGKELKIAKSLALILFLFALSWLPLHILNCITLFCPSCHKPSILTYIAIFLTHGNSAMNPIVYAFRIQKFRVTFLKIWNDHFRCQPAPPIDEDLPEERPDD
Put plainly: Displacement of [3H]DPCPX from human adenosine A1 receptor extracted from CHO cell membrane assessed as inhibition of [3H]DPCPX binding at 10 uM incubated for 60 mins by microplate beta scintillation counter relative to control. The format is cell membranes.

For test [2], the target named is T2, Adenosine receptor A3 (Homo sapiens, UniProt P0DMS8).
T2 sequence (P0DMS8 whole entry): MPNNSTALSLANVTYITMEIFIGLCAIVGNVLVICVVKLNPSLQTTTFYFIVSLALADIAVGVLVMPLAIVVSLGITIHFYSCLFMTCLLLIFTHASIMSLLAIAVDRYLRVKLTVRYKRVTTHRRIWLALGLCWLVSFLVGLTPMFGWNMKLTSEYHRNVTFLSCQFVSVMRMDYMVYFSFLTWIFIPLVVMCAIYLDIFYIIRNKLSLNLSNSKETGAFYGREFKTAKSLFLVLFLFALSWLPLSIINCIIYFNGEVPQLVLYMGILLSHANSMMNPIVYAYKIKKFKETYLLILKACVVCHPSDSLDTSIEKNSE
Put plainly: Displacement of [3H]NECA from human adenosine A3 receptor extracted from human HeLa cell membrane assessed as inhibition constant incubated for 180 mins by microplate scintillation counter. Type of test: cell membranes. (In general: Loss of bound radioactivity is the signal in a displacement assay; it reports binding, not function.)

Test [3] deals with Adenosine receptor A2a (Homo sapiens) (UniProt P29274). The experiment in a line: Displacement of [3H]ZM241385 from human adenosine A2A receptor extracted from human HeLa cell membrane assessed as inhibition of [3H]ZM241385 binding at 10 uM incubated for 30 mins by microplate beta scintillation counter relative to control. The format is cell membranes.
Test [4] deals with T3, Adenosine receptor A2b (Homo sapiens) (UniProt P29275).
T3 sequence (whole entry): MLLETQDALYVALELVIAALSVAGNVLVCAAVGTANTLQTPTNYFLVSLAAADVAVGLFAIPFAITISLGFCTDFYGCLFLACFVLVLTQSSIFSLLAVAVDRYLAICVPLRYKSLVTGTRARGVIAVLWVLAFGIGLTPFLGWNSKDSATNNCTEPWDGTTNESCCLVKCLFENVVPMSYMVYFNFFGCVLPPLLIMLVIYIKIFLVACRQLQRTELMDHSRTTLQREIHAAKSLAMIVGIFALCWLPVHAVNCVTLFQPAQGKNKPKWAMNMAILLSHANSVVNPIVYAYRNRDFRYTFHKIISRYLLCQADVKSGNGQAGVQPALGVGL
The experiment in a line: Displacement of [3H]DPCPX from human adenosine A2B receptor extracted from HEK293 cell membrane assessed as inhibition of [3H]DPCPX binding at 10 uM incubated for 30 mins by microplate beta scintillation counter relative to control. Type of test: cell membranes.

Test [5] deals with T4, Adenosine receptor A3 (Homo sapiens) (UniProt P0DMS8).
T4 sequence (whole entry): T2 sequence (P0DMS8 whole entry)
The experiment in a line: Partial agonist activity at human adenosine A3 receptor expressed in CHO cells assessed as cAMP production preincubated for 15 mins followed by forskolin addition and measured after 5 mins by enzyme immunoassay relative to control. The format is functional, cell-based. The note with it: filed as partial agonist, time 20.0 min.

Test [6] addresses T4, Adenosine receptor A3 (Homo sapiens). The experiment in a line: Antagonist activity at human adenosine A3 receptor expressed in CHO cells assessed as inhibition of cAMP production preincubated for 15 mins followed by NECA addition for 10 mins and measured 5 mins after forskolin addition by enzyme immunoassay relative to control. Type of test: functional, cell-based. As to conditions: time 30.0 min.

Test [7] concerns the target T2, Adenosine receptor A3. The experiment in a line: Binding affinity to human adenosine A3 receptor assessed as inhibition constant.
In test [8] the target is T2, Adenosine receptor A3. The experiment in a line: Displacement of [125I]iodo-AB-MECA from human adenosine A3 receptor expressed in CHO cells assessed as inhibition constant. The format is cell-based.

Adenosine receptor A2a (Homo sapiens), sequence (P29274 whole entry): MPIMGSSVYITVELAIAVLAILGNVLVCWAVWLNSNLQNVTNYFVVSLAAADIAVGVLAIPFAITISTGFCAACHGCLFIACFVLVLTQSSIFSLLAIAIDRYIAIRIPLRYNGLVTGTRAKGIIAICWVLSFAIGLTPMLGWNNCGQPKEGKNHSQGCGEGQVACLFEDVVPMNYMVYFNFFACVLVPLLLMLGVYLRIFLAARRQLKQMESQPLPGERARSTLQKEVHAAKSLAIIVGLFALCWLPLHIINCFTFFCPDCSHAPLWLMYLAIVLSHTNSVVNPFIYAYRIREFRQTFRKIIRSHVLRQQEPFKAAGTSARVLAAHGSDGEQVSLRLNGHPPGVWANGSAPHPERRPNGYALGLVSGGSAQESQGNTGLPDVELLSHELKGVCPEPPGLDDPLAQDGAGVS

One may read the inhibition as the share of the control response that was lost under treatment. One may read the Ki as the equilibrium dissociation constant of an inhibitor or competing ligand from its target. Turning to `O[C@@H]1[C@H](O)C[Se][C@H]1n1cnc2c(NCc3cccc(I)c3)nc(Cl)nc21`, the results for the inhibition in test [1], in test [3] and in test [4] were 57%, 24% and 67%, respectively. In test [2], the Ki turned out to be 109 nM.
For `O[C@@H]1[C@H](O)C[Se][C@H]1n1cnc2c(NC3CCCC3)nc(Cl)nc21`, the values for the inhibition in test [1], in test [3] and in test [4] were 54%, 13% and 37%, respectively. Further, in test [2], the Ki was determined as 16.9 nM.
On the same counts, the results for `O[C@@H]1[C@H](O)C[Se][C@H]1n1cnc2c(NCc3cccc(Br)c3)ncnc21` are 39%, 28%, 37% and 20.9 nM.
Turning to `CCNc1ncnc2c1ncn2[C@@H]1[Se]C[C@@H](O)[C@H]1O`, the inhibition in test [1] amounted to 25%; in test [3], 2%; in test [4], 7%. For the same molecule, the inhibition constant (Ki) in test [2] came to 17.5 nM.
On the same counts, the results for `O[C@@H]1[C@H](O)C[Se][C@H]1n1cnc2c(NCc3cccc(Cl)c3)nc(Cl)nc21` are 66%, 29%, 41% and 33.2 nM.
For `Nc1nc(Cl)nc2c1ncn2[C@@H]1[Se]C[C@@H](O)[C@H]1O` the same measures were 22%, 12%, 35% and 358 nM.
Turning to `O[C@@H]1[C@H](O)C[Se][C@H]1n1cnc2c(NC3CC3)nc(Cl)nc21`, the Activity in test [5] was found to be 87%. In addition, the inhibition in test [1] was 26%; in test [6] it was 11%; in test [3], 6%; in test [4], 29%. The inhibition constant (Ki) in test [2] came to 5.7 nM.
Take `O[C@@H]1[C@H](O)C[Se][C@H]1n1cnc2c(NC3CC3)ncnc21`: the inhibition amounted to 20% in test [1], 9% in test [3] and 15% in test [4]. The Ki in test [2] is 13.6 nM.
On the same counts, the results for `O[C@@H]1[C@H](O)C[Se][C@H]1n1cnc2c(NCc3cccc(F)c3)ncnc21` are 12%, 2%, 8% and 121 nM.
On the same counts, the results for `O[C@@H]1[C@H](O)C[Se][C@H]1n1cnc2c(NCc3cccc(F)c3)nc(Cl)nc21` are 23%, 7%, 22% and 97.1 nM.
Turning to `CNC(=O)C1O[C@@H](n2cnc3c(Nc4cccc(I)c4)nc(Cl)nc32)[C@H](O)[C@@H]1O` (stereo partly specified), the Ki in test [7] worked out at 1.4 nM.
As for `CCNc1nc(Cl)nc2c1ncn2[C@@H]1[Se]C[C@@H](O)[C@H]1O`, the inhibition in test [1] amounted to 31%; in test [3], 3%; in test [4], 18%. In addition, the Ki in test [2] was found to be 5.2 nM.
On the same counts, the results for `O[C@@H]1[C@H](O)C[Se][C@H]1n1cnc2c(NCc3cccc(Cl)c3)ncnc21` are 32%, 25%, 30% and 32.5 nM.
On the same counts, the results for `O[C@@H]1[C@H](O)C[Se][C@H]1n1cnc2c(NCc3cccc(Br)c3)nc(Cl)nc21` are 62%, 35%, 43% and 38.4 nM.
As for `O[C@@H]1[C@H](O)C[Se][C@H]1n1cnc2c(NC3CCCC3)ncnc21`, the inhibition in test [1] amounted to 39%; in test [3], 16%; in test [4], 7%. The inhibitory constant (Ki) in test [2] is 36.6 nM.
On the same counts, the results for `Nc1ncnc2c1ncn2[C@@H]1[Se]C[C@@H](O)[C@H]1O` are 10%, 33%, 25% and 238 nM.
`CNC(=O)C1S[C@@H](n2cnc3c(Nc4cccc(I)c4)nc(Cl)nc32)[C@H](O)[C@@H]1O` (stereo partly specified): the Ki in test [8] amounted to 0.38 nM.
For the molecule `O[C@@H]1[C@H](O)C[Se][C@H]1n1cnc2c(NCc3cccc(I)c3)ncnc21`, the inhibition was determined as 25% in test [1], 19% in test [3] and 20% in test [4]. Moreover, the Ki in test [2] is 43.2 nM.
On the same counts, the results for `CNc1ncnc2c1ncn2[C@@H]1[Se]C[C@@H](O)[C@H]1O` are 7%, 2%, 1% and 31.1 nM.
On the same counts, the results for `CNc1nc(Cl)nc2c1ncn2[C@@H]1[Se]C[C@@H](O)[C@H]1O` are 14%, 3%, 28% and 25.2 nM.

The values are drawn from ChEMBL document CHEMBL5614467, “Structure-Activity Relationship of Truncated 4'-Selenonucleosides: A3 Adenosine Receptor Activity and Binding Selectivity” (ACS Med Chem Lett, 2024).
